In one assay the test system is Pichia norvegensis. Kind of assay: Antifungal against Candida mycoderma after 24 hrs by two fold serial dilution method. It is filed as functional.
Another assay concerns Bacillus. As to the kind of experiment: Antibacterial activity against Bacillus proteus ATCC 13315 after 24 hrs by micro broth dilution assay. In kind it is functional. To be noted: ATCC 13315, 24 h. Background: In broth dilution the organism is exposed to a series of concentrations in liquid medium.
Assay [1] concerns Staphylococcus aureus. Kind of assay: Antibacterial activity against Staphylococcus aureus ATCC 25923 after 24 hrs by micro broth dilution assay. It is filed as functional. To be noted: ATCC 25923, 24 h.
The next assay has as its system Pseudomonas aeruginosa. As to the kind of experiment: Antibacterial activity against Pseudomonas aeruginosa after 24 hrs by micro broth dilution assay. In kind it is functional.
Another assay has as its system Saccharomyces cerevisiae. As to the kind of experiment: Antifungal against Saccharomyces cerevisiae after 24 hrs by two fold serial dilution method. In kind it is functional.
Another assay deals with Cyberlindnera jadinii. As to the kind of experiment: Antifungal against Candida utilis after 24 hrs by two fold serial dilution method. In kind it is functional. To be noted: Williopsis jadinii.
The subject of assay [2] is Staphylococcus aureus. As to the kind of experiment: Antibacterial activity against methicillin-resistant Staphylococcus aureus N315 after 24 hrs by micro broth dilution assay. In kind it is functional. To be noted: N315, 24 h.
Assay [3] relates to Escherichia coli. As to the kind of experiment: Antibacterial activity against Escherichia coli DH52 after 24 hrs by micro broth dilution assay. It is filed as functional. To be noted: DH52, 24 h.
For a further assay, the system named is Aspergillus flavus. As to the kind of experiment: Antifungal against Aspergillus flavus after 24 hrs by two fold serial dilution method. It is filed as functional.
In another assay the test system is Candida albicans. Kind of assay: Antifungal against Candida albicans ATCC 76615 after 24 hrs by two fold serial dilution method. It is filed as functional. The settings on record: ATCC 76615, 24 h.
The test system of the next assay is Bacillus subtilis. As to the kind of experiment: Antibacterial activity against Bacillus subtilis after 24 hrs by micro broth dilution assay. It is filed as functional.
The subject of a further assay is Micrococcus luteus. Kind of assay: Antibacterial activity against Micrococcus luteus ATCC4698 after 24 hrs by micro broth dilution assay. It is filed as functional. To be noted: ATCC4698, 24 h.
The test system of another assay is Shigella dysenteriae. Kind of assay: Antibacterial activity against Shigella dysenteriae after 24 hrs by micro broth dilution assay. It is filed as functional.
The subject of assay [4] is Escherichia coli. Kind of assay: Antibacterial activity against Escherichia coli JM109 after 24 hrs by micro broth dilution assay. In kind it is functional. To be noted: JM109, 24 h.
A further assay deals with Salmonella typhi. Kind of assay: Antibacterial activity against Bacillus typhi after 24 hrs by micro broth dilution assay. It is filed as functional, Salmonella enterica subsp. enterica serovar Typhi. To be noted: Salmonella enterica.

In brackets after ≈: the same amount, converted by molar mass.

`Cc1ccc(/C=C/C(=O)c2nc3ccccc3[nH]2)cc1`: the minimum inhibitory concentration (MIC) against Pichia norvegensis is 32 µg/mL (≈ 122 µM); in the assay with Bacillus it was 4 µg/mL (≈ 15.2 µM); against Staphylococcus aureus [1], 8 µg/mL (≈ 30.5 µM); in the assay with Pseudomonas aeruginosa, 4 µg/mL (≈ 15.2 µM); against Saccharomyces cerevisiae, 8 µg/mL (≈ 30.5 µM); against Cyberlindnera jadinii, 16 µg/mL (≈ 61 µM). Further, the MIC came out at 8 µg/mL (≈ 30.5 µM) against Staphylococcus aureus [2]; 8 µg/mL (≈ 30.5 µM) in the assay with Escherichia coli [3]; 16 µg/mL (≈ 61 µM) in the assay on Aspergillus flavus; 4 µg/mL (≈ 15.2 µM) with Candida albicans; 16 µg/mL (≈ 61 µM) with Bacillus subtilis; 16 µg/mL (≈ 61 µM) against Micrococcus luteus. The minimal inhibitory concentration (MIC) against Shigella dysenteriae was 16 µg/mL (≈ 61 µM); against Escherichia coli [4] it was 4 µg/mL (≈ 15.2 µM); in the assay on Salmonella typhi, 2 µg/mL (≈ 7.62 µM).
As for `CCCCCCCn1c(C(=O)/C=C/c2ccc(F)cc2)nc2ccccc21`, the MIC with Pichia norvegensis was 512 µg/mL (≈ 1400 µM); against Bacillus, 512 µg/mL (≈ 1400 µM); with Staphylococcus aureus [1], 512 µg/mL (≈ 1400 µM); in the assay on Pseudomonas aeruginosa, 512 µg/mL (≈ 1400 µM); in the assay on Saccharomyces cerevisiae, 512 µg/mL (≈ 1400 µM); with Cyberlindnera jadinii it was > 512 µg/mL. Also, the minimal inhibitory concentration (MIC) in the assay with Staphylococcus aureus [2] is 64 µg/mL (≈ 176 µM); with Escherichia coli [3] it was 512 µg/mL (≈ 1400 µM); against Aspergillus flavus, 512 µg/mL (≈ 1400 µM); against Candida albicans, 512 µg/mL (≈ 1400 µM); against Bacillus subtilis, 512 µg/mL (≈ 1400 µM); with Micrococcus luteus it was 512 µg/mL (≈ 1400 µM). In addition, the minimum inhibitory concentration (MIC) in the assay with Shigella dysenteriae amounted to 512 µg/mL (≈ 1400 µM); against Escherichia coli [4], 128 µg/mL (≈ 351 µM); in the assay on Salmonella typhi, 512 µg/mL (≈ 1400 µM).
Regarding `CCCCCCCCn1c(C(=O)/C=C/c2ccc(C)cc2)nc2ccccc21`, the MIC against Pichia norvegensis stood at 512 µg/mL (≈ 1370 µM); against Bacillus, 512 µg/mL (≈ 1370 µM); in the assay with Staphylococcus aureus [1], 512 µg/mL (≈ 1370 µM); against Pseudomonas aeruginosa, 512 µg/mL (≈ 1370 µM); in the assay on Saccharomyces cerevisiae it was 512 µg/mL (≈ 1370 µM); against Cyberlindnera jadinii, 256 µg/mL (≈ 684 µM). In addition, the MIC amounted to 512 µg/mL (≈ 1370 µM) in the assay with Staphylococcus aureus [2]; 512 µg/mL (≈ 1370 µM) with Escherichia coli [3]; 512 µg/mL (≈ 1370 µM) against Aspergillus flavus; 256 µg/mL (≈ 684 µM) against Candida albicans; 512 µg/mL (≈ 1370 µM) with Bacillus subtilis; 512 µg/mL (≈ 1370 µM) in the assay on Micrococcus luteus. The minimum inhibitory concentration (MIC) in the assay on Shigella dysenteriae, in the assay with Escherichia coli [4] and with Salmonella typhi was 512 µg/mL (≈ 1370 µM) each time.
`CCCCCCn1c(C(=O)/C=C/c2ccc(Cl)cc2)nc2ccccc21`: the minimum inhibitory concentration (MIC) is 128 µg/mL (≈ 349 µM) against Pichia norvegensis; 512 µg/mL (≈ 1400 µM) in the assay on Bacillus; 512 µg/mL (≈ 1400 µM) with Staphylococcus aureus [1]; 512 µg/mL (≈ 1400 µM) in the assay with Pseudomonas aeruginosa; 8 µg/mL (≈ 21.8 µM) against Saccharomyces cerevisiae; 512 µg/mL (≈ 1400 µM) against Cyberlindnera jadinii. Also, the minimum inhibitory concentration (MIC) against Staphylococcus aureus [2] stood at 512 µg/mL (≈ 1400 µM); in the assay with Escherichia coli [3], 16 µg/mL (≈ 43.6 µM); in the assay on Aspergillus flavus, 128 µg/mL (≈ 349 µM); against Candida albicans it was 512 µg/mL (≈ 1400 µM); with Bacillus subtilis, 256 µg/mL (≈ 698 µM); against Micrococcus luteus, 32 µg/mL (≈ 87.2 µM). The MIC is 512 µg/mL (≈ 1400 µM) with Shigella dysenteriae, 512 µg/mL (≈ 1400 µM) in the assay on Escherichia coli [4] and 128 µg/mL (≈ 349 µM) against Salmonella typhi.
Turning to `CCCCCCn1c(C(=O)/C=C/c2ccc(F)cc2)nc2ccccc21`, the minimum inhibitory concentration (MIC) in the assay on Pichia norvegensis came out at 512 µg/mL (≈ 1460 µM); against Bacillus, 64 µg/mL (≈ 183 µM); against Staphylococcus aureus [1], 512 µg/mL (≈ 1460 µM); against Pseudomonas aeruginosa, 512 µg/mL (≈ 1460 µM); against Saccharomyces cerevisiae, 512 µg/mL (≈ 1460 µM); against Cyberlindnera jadinii, 512 µg/mL (≈ 1460 µM). Also, the MIC came out at 512 µg/mL (≈ 1460 µM) in the assay on Staphylococcus aureus [2]; 32 µg/mL (≈ 91.3 µM) in the assay on Escherichia coli [3]; 16 µg/mL (≈ 45.7 µM) in the assay with Aspergillus flavus; 256 µg/mL (≈ 731 µM) in the assay on Candida albicans; 256 µg/mL (≈ 731 µM) in the assay on Bacillus subtilis; 16 µg/mL (≈ 45.7 µM) against Micrococcus luteus. For the same molecule, the minimal inhibitory concentration (MIC) in the assay on Shigella dysenteriae was found to be 256 µg/mL (≈ 731 µM); in the assay on Escherichia coli [4] it was 512 µg/mL (≈ 1460 µM); in the assay with Salmonella typhi, 512 µg/mL (≈ 1460 µM).
Regarding `CCCCCCCCn1c(-c2cc(-c3ccc(C)cc3)nc(N)n2)nc2ccccc21`, the MIC with Pichia norvegensis came to 512 µg/mL (≈ 1240 µM); in the assay on Bacillus it was 512 µg/mL (≈ 1240 µM); in the assay with Staphylococcus aureus [1], 512 µg/mL (≈ 1240 µM); in the assay on Pseudomonas aeruginosa it was 512 µg/mL (≈ 1240 µM); in the assay on Saccharomyces cerevisiae it was 128 µg/mL (≈ 310 µM); against Cyberlindnera jadinii, 16 µg/mL (≈ 38.7 µM). Besides, the MIC against Staphylococcus aureus [2] is 512 µg/mL (≈ 1240 µM); against Escherichia coli [3] it was 8 µg/mL (≈ 19.3 µM); against Aspergillus flavus, 512 µg/mL (≈ 1240 µM); against Candida albicans it was 512 µg/mL (≈ 1240 µM); with Bacillus subtilis, 512 µg/mL (≈ 1240 µM); in the assay on Micrococcus luteus it was 16 µg/mL (≈ 38.7 µM). The values for the minimal inhibitory concentration (MIC) in the assay with Shigella dysenteriae, in the assay on Escherichia coli [4] and in the assay on Salmonella typhi were 512 µg/mL (≈ 1240 µM), 128 µg/mL (≈ 310 µM) and 512 µg/mL (≈ 1240 µM), respectively.
As to `CCCCCCCn1c(-c2cc(-c3ccc(Cl)cc3)nc(N)n2)nc2ccccc21`, the minimum inhibitory concentration (MIC) was 16 µg/mL (≈ 38.1 µM) against Pichia norvegensis; 512 µg/mL (≈ 1220 µM) in the assay on Bacillus; 128 µg/mL (≈ 305 µM) against Staphylococcus aureus [1]; 64 µg/mL (≈ 152 µM) in the assay on Pseudomonas aeruginosa; 8 µg/mL (≈ 19 µM) in the assay with Saccharomyces cerevisiae; 4 µg/mL (≈ 9.52 µM) with Cyberlindnera jadinii. In addition, the minimal inhibitory concentration (MIC) came out at 8 µg/mL (≈ 19 µM) with Staphylococcus aureus [2]; 16 µg/mL (≈ 38.1 µM) with Escherichia coli [3]; 256 µg/mL (≈ 610 µM) against Aspergillus flavus; 128 µg/mL (≈ 305 µM) in the assay on Candida albicans; 2 µg/mL (≈ 4.76 µM) in the assay on Bacillus subtilis; 512 µg/mL (≈ 1220 µM) against Micrococcus luteus. Moreover, the MIC is 4 µg/mL (≈ 9.52 µM) in the assay on Shigella dysenteriae, 512 µg/mL (≈ 1220 µM) with Escherichia coli [4] and 8 µg/mL (≈ 19 µM) against Salmonella typhi.

The term MIC denotes the lowest concentration found to suppress growth. High values mean weaker potency, low ones greater potency.

For the origin of these results see ChEMBL document CHEMBL4251572, “Novel aminopyrimidinyl benzimidazoles as potentially antimicrobial agents: Design, synthesis and biological evaluation” (Eur J Med Chem, 2018).
